Laboratory results published in patent publication US8242280B2, “Fused ring heterocycle kinase modulators” (SGX Pharmaceuticals, Inc., priority 2007, dated 2012).

Legend:
[1] = molecular target: T1, unphosphorylated T315I Abl kinase domain (Mus musculus, UniProt P00520, T315I); experiment: c-Abl T315I 0P bioassay (pyruvate kinase/lactate dehydrogenase coupled enzyme assay); assay type: biochemical; conditions: zero phosphorylation state (0P), 10 μM ATP, read-out: AbI T315I 0P IC50
T1 construct: purified and unphosphorylated T315I Abl kinase domain; made in house; host or cells: E. coli BL21(DE3) (Codon+RIL or pSA0145 strain)
T1 sequence (P00520 242-493 T315I limits assumed): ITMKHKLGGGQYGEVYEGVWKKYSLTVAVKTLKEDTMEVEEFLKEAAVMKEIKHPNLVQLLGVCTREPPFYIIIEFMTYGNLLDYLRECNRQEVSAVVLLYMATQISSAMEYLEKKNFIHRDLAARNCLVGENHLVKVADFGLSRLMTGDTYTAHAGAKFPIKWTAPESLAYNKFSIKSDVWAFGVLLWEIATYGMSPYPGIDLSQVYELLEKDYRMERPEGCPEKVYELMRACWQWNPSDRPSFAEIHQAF
Excerpt: Although the first of these examples uses the kinase domain of a mutant form of Abl T315I (“Abl T315I KD”), the kinase assays may use various forms of mutant and wild type enzymes, including, for example, the entire protein, the kinase domain, or a portion thereof (e.g. Abl Y393F). The kinases used in the assays may also be of varying phosphorylation states. In the c-Abl example, a mutant kinase at a zero phosphorylation state was used. c-Abl Pyruvate Kinase/Lactate Dehydrogenase Coupled Enzyme Assay
In the c-Abl Pyruvate Kinase (PK)/Lactate Dehydrogenase (LDH) Coupled Assay the protein kinase dependant phosphorylation of a substrate peptide was coupled to the oxidation of NADH. The oxidation of NADH to NAD+ was detected by monitoring a decrease in absorbance at 340 nm.
Materials: Abl substrate peptide=EAIYAAPFAKKK (SEQ ID NO: 1)—OH (Biopeptide, San Diego, Calif.); pNADH (Sigma Cat#N-8129, FW=709.4); 2M MgC12; 1M HEPES buffer, pH 7.5; Phosphoenolpyruvate (PEP) (Sigma Cat#P-7002, FW=234); Lactate dehydrogenase (LDH) (Worthington Biochemical Cat#2756); Pyruvate Kinase (PK) (Sigma Cat#P-9136); ATP (Sigma Cat#A-3377, FW=551); Greiner 384-well UV star plate; and purified and unphosphorylated T315I Abl kinase domain.
Stock Solutions: 10 mM NADH (7.09 mg/ml in miliQH2O) made fresh daily; 10 mM Abl substrate peptide (13.4 mg/ml in miliQH2O) stored at −20° C.; 100 mM HEPES buffer, pH 7.5 (5 ml 1M stock+45 ml miliQH2O); 100 mM MgCl2 (5 ml 2M MgCl2+95 ml dH2O); 100 MM PEP (23.4 mg/ml in dH2O) stored at −20° C.; 10 mM ATP (5.51 mg/ml in dH2O) stored at −20° C. (diluted 50 μl into total of 10 ml miliQH2O daily=50 μM ATP working stock); 1000 U/ml PK (U/mg varies with lot) flash-frozen under liquid N2 and stored at −80° C.; and 1000 U/ml LDH (U/mg varies with lot) flash-frozen under liquid N2 and stored at −80° C.
Standard Assay Setup for 384-well format (50 μl reaction): 300 μM NADH; 10 mM MgCl2; 2 mM PEP; 45U/ml PK; 60 U/ml LDH; 200 μM Abl substrate peptide; 2.5 μl test compound (in DMSO); 2 μg/ml Abl kinase domain; 10 μM ATP; 100 mM HEPES buffer. Positive controls contained DMSO with no test compound. Negative controls contained 5 μl of 0.5M EDTA (50 mM in the assay). The dephosphorylated form of the c-Abl T315I mutant was used in the biochemical screening assays. The kinase reaction was initiated at time t=0 by the addition of ATP.
Activity was measured by following the time-dependent loss of NADH by absorbance spectroscopy at 340 nm. The linear portion of the resulting progress curve was then analyzed by linear regression to get the activity in absorbance units/time, reported as the slope of that best fit line (moles/unit time can be calculated from using molar extinction coefficient for NADH at 340 nm, 6250M^−1 cm^−1).
Data was evaluated using the equation: Z′=1−[3*(σ++σ−)/|μ+−μ−|](Zhang, et al., 1999 J Biomol Screening 4(2) 67-73), where μ denotes the mean and σ the standard deviation. The subscript designates positive or negative controls. The Z′ score for a robust screening assay should be ≧0.50. The typical threshold=μ+−3*σ+. Any value that falls below the threshold was designated a “hit”.
Dose response was analyzed using the equation: y=min+{(max−min)/(1+10^[compound]−logIC50)}, where y is the observed initial slope, max=the slope in the absence of inhibitor, min=the slope at infinite inhibitor, and the IC50 is the [compound] that corresponds to ½ the total observed amplitude (Amplitude=max−min).
To measure modulation, activation, or inhibition of Abl KD, a test compound was added to the assay at a range of concentrations. Inhibitors may inhibit Abl KD activity at an IC50 in the micromolar range, the nanomolar range, or, for example, in the subnanomolar range.
An open-reading frame for c-Abl was amplified from a Mus musculus (mouse) cDNA library prepared from freshly harvested mouse liver using a commercially available kit (invitrogen) by PCR using the following primers: […]
The c-Abl T315I KD (kinase domain) was purified as follows. […]

Ba/F3 cells, ABL1 WT = Ba/F3 cells, ABL1 WT (Homo sapiens, UniProt P00519); experiment: 96-well XTT cell survival assay, Ba/F3 ABL1 WT; assay type: cell-based; conditions: 72 hours, read-out: ABL1 WT XTT [Ba/F3] IC50
Description: (§1) MV4-11 and THP cells were maintained in Iscove's Modified Dulbecco's Medium supplemented with 10% fetal bovine serum (FBS) and penicillin/streptomycin, Ba/F3 cells were maintained in RPMI 1640 supplemented with 10% FBS, penicillin/streptomycin and 5 ng/ml recombinant mouse IL-3.
(§2) Compounds were tested in the following assays in duplicate.
(§3) 96-well XTT assay: Cells (e.g. BaF3 315I, M351I, or E255K cells) were grown in growth media containing various concentrations of compounds (duplicates) on a 96-well plate for 72 hours at 37° C. The starting cell number was 5000-8000 cells per well and volume was 120 μl. At the end of the 72-hour incubation, 40 μl of XTT labeling mixture (50:1 solution of sodium 3′-[1-(phenylamino-carbonyl)-3,4-tetrazolium]-bis(4-methoxy-6-nitro)benzene sulfonic acid hydrate and Electron-coupling reagent: PMS (N-methyl dibenzopyrazine methyl sulfate) were added to each well of the plate. After an additional 2-6 hours of incubation at 37° C., the absorbance reading at 405 nm with background correction at 650 nm was measured with a spectrophotometer.

Ba/F3 cells, ABL1 T315I = Ba/F3 cells, ABL1 T315I (Homo sapiens, UniProt P00519, T315I, cells depend on it); experiment: 96-well XTT cell survival assay, Ba/F3 ABL1 T315I; assay type: cell-based; conditions: 72 hours, read-out: ABL1 T315I XTT [Ba/F3] IC50
Description: as §1, §2, §3

SMILES | IC50 [1] | GI50 (Ba/F3 cells, ABL1 WT) | GI50 (Ba/F3 cells, ABL1 T315I)
COc1ccccc1-c1c[nH]c2ncc(-c3cccc(C(N)CC(=O)N(C)C)c3)cc12 (stereo not drawn) | < 0.05 µM | > 1 µM | > 1 µM
COc1ccccc1-c1c[nH]c2ncc(-c3cccc(C(N)CC(=O)N(C)CCN(C)C)c3)cc12 (stereo not drawn) | < 0.05 µM | > 1 µM | > 1 µM
COc1ccccc1-c1c[nH]c2ncc(-c3cccc(C(N)CC(=O)N4CCC[C@@H]4CO)c3)cc12 (stereo partly drawn) | < 0.05 µM | > 1 µM | > 1 µM
COc1ccccc1-c1n[nH]c2ncc(-c3cccc(C(O)C(=O)N(C)C)n3)cc12 (stereo not drawn) | < 0.05 µM | > 1 µM | > 1 µM
COc1ccccc1-c1n[nH]c2ncc(-c3cccc(C(O)C(=O)N(C)CCN(C)C)n3)cc12 (stereo not drawn) | < 0.05 µM | > 1 µM | > 1 µM
COc1ccccc1-c1c[nH]c2ncc(-c3cccc(C(O)C(=O)N(C)C)n3)cc12 (stereo not drawn) | < 0.05 µM | > 1 µM | > 1 µM
COc1ccccc1-c1c[nH]c2ncc(-c3cccc(C(O)C(=O)N(C)CCN(C)C)n3)cc12 (stereo not drawn) | < 0.05 µM | > 1 µM | > 1 µM
COc1ccccc1-c1c[nH]c2ncc(-c3cccc(C(O)C(=O)N(C)CCNC4CC4)c3)cc12 (stereo not drawn) | < 0.05 µM | < 1 µM | < 1 µM
COc1ccccc1-c1c[nH]c2ncc(-c3cncc(C(O)C(=O)N(C)C(C)C)c3)cc12 (stereo not drawn) | < 0.05 µM | > 1 µM | < 1 µM
CCN(C)C(=O)C(O)c1cncc(-c2cnc3[nH]cc(-c4ccccc4OC)c3c2)c1 (stereo not drawn) | < 0.05 µM | < 1 µM | < 1 µM
COc1ccccc1-c1c[nH]c2ncc(-c3cncc(C(O)C(=O)N(C)Cc4ccnn4C)c3)cc12 (stereo not drawn) | < 0.05 µM | < 1 µM | < 1 µM
COc1ccccc1-c1c[nH]c2ncc(-c3cc(C(O)C(=O)N(C)C)ncn3)cc12 (stereo not drawn) | 0.05 to 0.5 µM | > 1 µM | > 1 µM
CC[C@H](O)[C@@H](O)c1cccc(-c2cnc3[nH]cc(-c4ccccc4OC)c3c2)c1 | < 0.05 µM | < 1 µM | < 1 µM
COc1ccccc1-c1c[nH]c2ncc(-c3ccnc(C(O)C(=O)N(C)C)c3)cc12 (stereo not drawn) | < 0.05 µM | > 1 µM | > 1 µM
COc1ccccc1-c1c[nH]c2ncc(-c3cccc(C(F)C(=O)N(C)C)c3)cc12 (stereo not drawn) | < 0.05 µM | > 1 µM | > 1 µM
COc1ccccc1-c1c[nH]c2ncc(-c3cc(C(O)C(=O)N(C)C)ccn3)cc12 (stereo not drawn) | < 0.05 µM | > 1 µM | > 1 µM
COc1ccccc1-c1c[nH]c2ncc(-c3ccnc(C(O)C(=O)N(C)C)n3)cc12 (stereo not drawn) | 0.05 to 0.5 µM | > 1 µM | > 1 µM

SMILES | IC50 [1] | GI50 (Ba/F3 cells, ABL1 WT) | GI50 (Ba/F3 cells, ABL1 T315I)
CN(C)C(=O)C(O)c1cncc(-c2cnc3[nH]cc(-c4ccc(Cl)cc4)c3c2)c1 (stereo not drawn) | < 0.05 µM | < 1 µM | > 1 µM
COc1ccccc1-c1c[nH]c2ncc(-c3cncc([C@@H](O)C(=O)N(C)C)c3)cc12 | < 0.05 µM | < 1 µM | < 1 µM
COc1ccccc1-c1c[nH]c2ncc(-c3cncc([C@H](O)C(=O)N(C)C)c3)cc12 | < 0.05 µM | < 1 µM | < 1 µM
CN(C)C(=O)C(O)c1cncc(-c2cnc3[nH]cc(-c4ccc(Cl)c(Cl)c4)c3c2)c1 (stereo not drawn) | < 0.05 µM | > 1 µM | > 1 µM
COc1ccc(F)cc1-c1c[nH]c2ncc(-c3cncc(C(O)C(=O)N(C)C)c3)cc12 (stereo not drawn) | < 0.05 µM | < 1 µM | < 1 µM
COc1ccccc1-c1c[nH]c2ncc(-c3cncc(C(=O)C(=O)N(C)C)c3)cc12 | < 0.05 µM | < 1 µM | < 1 µM
COc1ccc(F)cc1-c1c[nH]c2ncc(-c3cc(C(O)C(=O)N(C)C)c[n+]([O-])c3)cc12 (stereo not drawn) | < 0.05 µM | > 1 µM | > 1 µM
Cc1ccc(-c2c[nH]c3ncc(-c4cncc(C(O)C(=O)N(C)C)c4)cc23)cc1 (stereo not drawn) | < 0.05 µM | > 1 µM | > 1 µM
CN(C)C(=O)C(O)c1cncc(-c2cnc3[nH]cc(-c4ccccc4)c3c2)c1 (stereo not drawn) | < 0.05 µM | < 1 µM | < 1 µM
CN(C)C(=O)C(O)c1cncc(-c2cnc3[nH]cc(-c4cncnc4)c3c2)c1 (stereo not drawn) | > 0.5 µM | > 1 µM | > 1 µM
Cc1cccc(-c2c[nH]c3ncc(-c4cncc(C(O)C(=O)N(C)C)c4)cc23)c1 (stereo not drawn) | < 0.05 µM | < 1 µM | < 1 µM
CN(C)C(=O)C(O)c1cncc(-c2cnc3[nH]cc(-c4cccc(C(F)(F)F)c4)c3c2)c1 (stereo not drawn) | < 0.05 µM | > 1 µM | > 1 µM
COc1ccc(-c2c[nH]c3ncc(-c4cncc(C(O)C(=O)N(C)C)c4)cc23)cc1 (stereo not drawn) | < 0.05 µM | > 1 µM | > 1 µM
CC(=O)c1ccccc1-c1c[nH]c2ncc(-c3cncc(C(O)C(=O)N(C)C)c3)cc12 (stereo not drawn) | 0.05 to 0.5 µM | > 1 µM | > 1 µM
CN(C)C(=O)C(O)c1cncc(-c2cnc3[nH]cc(-c4ccc(C#N)cc4)c3c2)c1 (stereo not drawn) | 0.05 to 0.5 µM | > 1 µM | > 1 µM
CN(C)C(=O)C(O)c1cncc(-c2cnc3[nH]cc(-c4cccc(F)c4F)c3c2)c1 (stereo not drawn) | < 0.05 µM | < 1 µM | < 1 µM
CN(C)C(=O)C(O)c1cncc(-c2cnc3[nH]cc(-c4ccc(OC(F)(F)F)cc4)c3c2)c1 (stereo not drawn) | 0.05 to 0.5 µM | > 1 µM | > 1 µM
